Data on eight compounds can be found in patent US10414983B2, “Curved liquid crystal display” (SAMSUNG DISPLAY CO., LTD., priority 2017, dated 2019).

SMILES strings stand for the structures.

The nature of the series: Adsorption force of the first compound. The format is physicochemical. The arrangement: unit not given here. Conditions: adsorption to pixel electrode; unit not given; larger absolute value = stronger adsorption. From the text: Next, a physical characteristic of the first compound according to an example embodiment obtained as above-described and a comparative example are compared.
As described in Table 2, solubility and adsorption force of the first compound according to Examples 1 to 7 and the Comparative Example are described.
Referring to Table 2, in the case of the first compound according to an example embodiment, it is confirmed that the solubility is the same level as or higher than the comparative example. Also, it may be confirmed that an absolute value of the adsorption force of the first compound is the same level as or higher than the comparative example. Accordingly, the first compound may be easily absorbed to the pixel electrode, thereby it may be confirmed that the solubility is excellent when being injected to the liquid crystal material and the first compound is easily injected along with the liquid crystal material.
Turning to `C=C(C)C(=O)OCCCCCOc1ccc(C(=O)c2ccc(OCCCCCCOC(=O)CCN(CCO)CCO)cc2)cc1` [Example 2], the Adsorption force is reported as −1.34.
In the case of `C=C(C)C(=O)OCCCc1cc(-c2ccccc2CC)cc(CCCOC(=O)C(=C)C)c1OCCCCCc1ccc(OCCCCCO)cc1` [Comparative Example, reference compound], the Adsorption force is listed as −0.49.
Under `C=CC(=O)OCCOc1c(F)cc(-c2ccc(OCCOC(=O)CCOCc3ccoc3)cc2)cc1F` [Example 5] stands −0.45; under `C=CC(=O)OCCOc1c(F)cc(-c2ccc(OCCOC(=O)CCOC3CCOCC3)cc2)cc1F` [Example 4], −0.40; under `C=CC(=O)OCCOc1c(F)cc(-c2ccc(OCCOC(=O)CCOCc3ccon3)cc2)cc1F` [Example 7], −0.53.
Turning to `C=C(C)C(=O)OCCCCCOc1c(F)cc(-c2ccc(OCCCCCCOC(=O)CCN(CCC)CCO)cc2)cc1F` [Example 3], the Adsorption force was −0.99.
With `C=C(CCN(CCO)CCO)Oc1ccc(C(=O)c2ccc(OC(=O)C(=C)C)cc2)cc1` [Example 1], the Adsorption force is reported as −1.27.
With `C=CC(=O)OCCOc1c(F)cc(-c2ccc(OCCOC(=O)CCOCc3cccnn3)cc2)cc1F` [Example 6] the figure was −0.51.
